Experimental data taken from ChEMBL document CHEMBL1806461, “Identification of MK-5710 ((8aS)-8a-methyl-1,3-dioxo-2-[(1S,2R)-2-phenylcyclopropyl]-N-(1-phenyl-1H-pyrazol-5-yl)hexahydroimid azo[1,5-a]pyrazine-7(1H)-carboxamide), a potent smoothened antagonist for use in Hedgehog pathway dependent malignancies, part 1” (Bioorg Med Chem Lett, 2011).
Calls of active or inactive are those of the source. The rule behind the calls is not given here.

System: not listed separately
Assay: Growth inhibition of Ptch +/- mouse medulloblastoma cells
Assay type: functional
Settings: Medulloblastoma cell

Structure (SMILES)	CC50 [nM]
O=C(Nc1cccc(Cl)c1Cl)N1CCN2C(=O)N([C@H]3C[C@@H]3c3ccccc3)C(=O)C2C1 (mixture of isomers)	3.3
O=C(Nc1ccccc1-c1ccccc1)N1CCN2C(=O)N([C@H]3C[C@@H]3c3ccccc3)C(=O)C2C1 (mixture of isomers)	12

System: Shh Light II
Assay: Cytotoxicity against mouse Shh Light2 cells assessed as cell viability at 2.5 uM
Assay type: cell-based
Settings: not given

Structure (SMILES)	Activity
CN(C)C(=O)N1CCN2C(=O)N([C@H]3C[C@@H]3c3ccccc3)C(=O)C2C1 (mixture of isomers)	Non-toxic

Molecular target: T1, Protein smoothened (Homo sapiens, UniProt Q99835)
Settings: Shh Light II; 2 uM
Description: Antagonist activity at smoothened expressed in mouse Shh Light2 cells co-expressing Gli-dependent reporter gene assessed as inhibition of Hh pathway at 2 uM

T1 sequence (Q99835 whole entry): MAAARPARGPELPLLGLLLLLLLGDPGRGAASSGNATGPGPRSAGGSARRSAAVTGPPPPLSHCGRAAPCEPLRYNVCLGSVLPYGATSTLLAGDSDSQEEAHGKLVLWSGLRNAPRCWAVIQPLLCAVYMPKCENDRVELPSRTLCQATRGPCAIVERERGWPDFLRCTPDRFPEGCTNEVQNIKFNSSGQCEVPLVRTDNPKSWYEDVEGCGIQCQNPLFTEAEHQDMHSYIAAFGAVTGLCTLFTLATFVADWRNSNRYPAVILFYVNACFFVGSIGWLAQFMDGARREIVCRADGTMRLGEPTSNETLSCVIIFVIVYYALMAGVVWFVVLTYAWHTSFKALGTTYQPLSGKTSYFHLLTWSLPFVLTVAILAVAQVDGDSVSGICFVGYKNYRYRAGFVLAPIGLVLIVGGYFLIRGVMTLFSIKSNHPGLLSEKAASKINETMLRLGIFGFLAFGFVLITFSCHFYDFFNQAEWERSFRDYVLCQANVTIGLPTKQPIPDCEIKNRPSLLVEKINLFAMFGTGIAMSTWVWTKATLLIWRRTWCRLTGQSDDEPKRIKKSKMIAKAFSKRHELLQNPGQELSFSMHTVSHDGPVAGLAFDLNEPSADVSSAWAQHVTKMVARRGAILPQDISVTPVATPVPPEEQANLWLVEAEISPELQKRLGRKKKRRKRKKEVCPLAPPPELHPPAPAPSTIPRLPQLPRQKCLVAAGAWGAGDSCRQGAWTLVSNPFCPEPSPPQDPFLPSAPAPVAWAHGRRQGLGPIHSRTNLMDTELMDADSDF

Structure (SMILES)	inhibition
CN(C)C(=O)N1CCN2C(=O)N([C@H]3C[C@@H]3c3ccccc3)C(=O)C2C1 (mixture of isomers)	Active

Molecular target: T1, Protein smoothened
Assay: Displacement of [125I]-PA cyclopamine from smoothened expressed in african green monkey COS-1 cells after 10 mins by autoradiography
Assay type: cell-based
Settings: not given

Structure (SMILES)	IC50 [nM]
O=C(NCc1ccco1)N1CCN2C(=O)N([C@H]3C[C@@H]3c3ccccc3)C(=O)C2C1 (mixture of isomers)	> 2500
O=C(Nc1cccnc1-c1ccccc1)N1CCN2C(=O)N([C@H]3C[C@@H]3c3ccccc3)C(=O)C2C1 (mixture of isomers)	12
O=C(Nc1c(Cl)cc(OC(F)(F)F)cc1Cl)N1CCN2C(=O)N([C@H]3C[C@@H]3c3ccccc3)C(=O)C2C1 (mixture of isomers)	130
O=C(Nc1ccccc1-c1ccccc1)N1CCN2C(=O)N([C@H]3C[C@@H]3c3ccccc3)CC2C1 (mixture of isomers)	1400
O=C(Nc1ccc(F)c(Cl)c1Cl)N1CCN2C(=O)N([C@H]3C[C@@H]3c3ccccc3)C(=O)C2C1 (mixture of isomers)	480
CC(C)(C)C(=O)N1CCN2C(=O)N([C@H]3C[C@@H]3c3ccccc3)C(=O)C2C1 (mixture of isomers)	4000
Cc1cccc(Cl)c1NC(=O)N1CCN2C(=O)N([C@H]3C[C@@H]3c3ccccc3)C(=O)C2C1 (mixture of isomers)	770
O=C(Nc1ccccc1-c1cnco1)N1CCN2C(=O)N([C@H]3C[C@@H]3c3ccccc3)C(=O)C2C1 (mixture of isomers)	1800
O=C(Nc1c(Cl)cc(C(F)(F)F)cc1Cl)N1CCN2C(=O)N([C@H]3C[C@@H]3c3ccccc3)C(=O)C2C1 (mixture of isomers)	280
O=C(Nc1c(Cl)cc(F)cc1Cl)N1CCN2C(=O)N([C@H]3C[C@@H]3c3ccccc3)C(=O)C2C1 (mixture of isomers)	310
O=C(Nc1cc(Cl)cc(Cl)c1)N1CCN2C(=O)N([C@H]3C[C@@H]3c3ccccc3)C(=O)C2C1 (mixture of isomers)	280
O=C(C1CCCCC1)N1CCN2C(=O)N([C@H]3C[C@@H]3c3ccccc3)C(=O)C2C1 (mixture of isomers)	> 1500
O=C(Nc1ccnn1-c1ccccc1)N1CCN2C(=O)N([C@H]3C[C@@H]3c3ccccc3)C(=O)CC2C1 (mixture of isomers)	7800
CC(C)c1ccccc1NC(=O)N1CCN2C(=O)N([C@H]3C[C@@H]3c3ccccc3)C(=O)C2C1 (mixture of isomers)	210
O=C(Nc1c(Cl)cccc1Cl)N1CCN2C(=O)N([C@H]3C[C@@H]3c3ccccc3)C(=O)C2C1 (mixture of isomers)	280
O=C(Nc1ccccc1-c1ccccc1)N1CCN2C(=O)N(C3Cc4ccccc4C3)C(=O)C2C1 (racemic)	880
O=C(Nc1cccnc1-c1cccc(Cl)c1)N1CCN2C(=O)N([C@H]3C[C@@H]3c3ccccc3)C(=O)C2C1 (mixture of isomers)	19
CCCCN1C(=O)C2CN(C(=O)Nc3ccccc3-c3ccccc3)CCN2C1=O (racemic)	> 2500
COc1cccc(-c2ncccc2NC(=O)N2CCN3C(=O)N([C@H]4C[C@@H]4c4ccccc4)C(=O)C3C2)c1 (mixture of isomers)	47

Structure (SMILES)	IC50 [nM]
O=C(Nc1ccc(F)cc1Cl)N1CCN2C(=O)N([C@H]3C[C@@H]3c3ccccc3)C(=O)C2C1 (mixture of isomers)	1100
O=C(Nc1ccc2c(c1)OCO2)N1CCN2C(=O)N([C@H]3C[C@@H]3c3ccccc3)C(=O)C2C1 (mixture of isomers)	700
CC(=O)N1CCN2C(=O)N([C@H]3C[C@@H]3c3ccccc3)C(=O)C2C1 (mixture of isomers)	> 1500
CN(C)C(=O)N1CCN2C(=O)N([C@H]3C[C@@H]3c3ccccc3)C(=O)C2C1 (mixture of isomers)	> 2500
Cc1cc(C#N)cc(Cl)c1NC(=O)N1CCN2C(=O)N([C@H]3C[C@@H]3c3ccccc3)C(=O)C2C1 (mixture of isomers)	84
O=C(Nc1ccccc1-c1ccsc1)N1CCN2C(=O)N([C@H]3C[C@@H]3c3ccccc3)C(=O)C2C1 (mixture of isomers)	220
O=C(Nc1ccccc1-c1ccccc1)N1CCN2C(=O)N(C3CC34CCCCC4)C(=O)C2C1 (racemic)	> 2500
O=C1C2CN(CC3CCCCC3)CCN2C(=O)N1[C@H]1C[C@@H]1c1ccccc1 (mixture of isomers)	> 2500
O=C(Nc1ccnn1-c1ccccc1)N1CCN2C(=O)N([C@H]3C[C@@H]3c3ccccc3)C(=O)C2C1 (mixture of isomers)	13
O=C(Nc1ccccc1-c1ccccc1)N1CCN2C(=O)N(CCc3ccccc3)C(=O)C2C1 (racemic)	2000
O=C(Nc1cccnc1-c1ccsc1)N1CCN2C(=O)N([C@H]3C[C@@H]3c3ccccc3)C(=O)C2C1 (mixture of isomers)	88
O=C(Nc1ccccc1-c1ccccc1)c1ccc2c(c1)C(=O)N([C@H]1C[C@@H]1c1ccccc1)C2=O	3200
O=C(Nc1cccnc1-c1ccccc1Cl)N1CCN2C(=O)N([C@H]3C[C@@H]3c3ccccc3)C(=O)C2C1 (mixture of isomers)	140
O=C(Nc1ccccc1C(F)(F)F)N1CCN2C(=O)N([C@H]3C[C@@H]3c3ccccc3)C(=O)C2C1 (mixture of isomers)	890
CCCCCCNC(=O)N1CCN2C(=O)N([C@H]3C[C@@H]3c3ccccc3)C(=O)C2C1 (mixture of isomers)	380
O=C(Nc1ccccc1-c1ccccc1)N1CCN2C(=O)N(Cc3ccccc3)C(=O)C2C1 (racemic)	> 2500
COC(=O)N1CCN2C(=O)N([C@H]3C[C@@H]3c3ccccc3)C(=O)C2C1 (mixture of isomers)	> 1500
O=C(Nc1ccccc1-c1ccccc1)N1CCN2C(=O)N([C@H]3C[C@H](c4ccccc4)C3)C(=O)C2C1 (mixture of isomers)	440
N#Cc1ccccc1NC(=O)N1CCN2C(=O)N([C@H]3C[C@@H]3c3ccccc3)C(=O)C2C1 (mixture of isomers)	> 2500

Structure (SMILES)	IC50 [nM]
Cn1cc(-c2ncccc2NC(=O)N2CCN3C(=O)N([C@H]4C[C@@H]4c4ccccc4)C(=O)C3C2)cn1 (mixture of isomers)	620
N#Cc1cc(Cl)c(NC(=O)N2CCN3C(=O)N([C@H]4C[C@@H]4c4ccccc4)C(=O)C3C2)c(Cl)c1 (mixture of isomers)	62
O=C(Nc1cccnc1-c1ccc(Cl)cc1)N1CCN2C(=O)N([C@H]3C[C@@H]3c3ccccc3)C(=O)C2C1 (mixture of isomers)	680
O=C(Nc1cccnc1-c1cccc(C(F)(F)F)c1)N1CCN2C(=O)N([C@H]3C[C@@H]3c3ccccc3)C(=O)C2C1 (mixture of isomers)	160
O=C(Nc1ccccc1-c1ccccc1)N1CCN2C(=O)N([C@H]3C[C@H]3c3ccccc3)C(=O)C2C1 (mixture of isomers)	> 2500
O=C(Nc1ccnn1-c1ccccc1)N1CCN2CC(=O)N([C@H]3C[C@@H]3c3ccccc3)C(=O)C2C1 (mixture of isomers)	5100
O=C(Nc1cccc(Cl)c1Cl)N1CCN2C(=O)N([C@H]3C[C@@H]3c3ccccc3)C(=O)C2C1 (mixture of isomers)	220
COC(=O)c1cccc(NC(=O)N2CCN3C(=O)N([C@H]4C[C@@H]4c4ccccc4)C(=O)C3C2)c1Cl (mixture of isomers)	1100
CN(C(=O)N1CCN2C(=O)N([C@H]3C[C@@H]3c3ccccc3)C(=O)C2C1)c1ccccc1-c1ccccc1 (mixture of isomers)	1000
Cc1c(Cl)cccc1NC(=O)N1CCN2C(=O)N([C@H]3C[C@@H]3c3ccccc3)C(=O)C2C1 (mixture of isomers)	460
O=C(Nc1ccccc1-c1ccccc1)N1CCN2C(=O)N(c3cccc(-c4ccccc4)c3)C(=O)C2C1 (racemic)	> 2500
CS(=O)(=O)c1cc(Cl)c(NC(=O)N2CCN3C(=O)N([C@H]4C[C@@H]4c4ccccc4)C(=O)C3C2)c(Cl)c1 (mixture of isomers)	77
O=C(Nc1ccccc1-c1ccccc1)N1CCN2C(=O)N([C@H]3C[C@@H]3c3ccccc3)C(=O)C2C1 (mixture of isomers)	94
O=C(Nc1ccc(-c2ccccc2)cc1)N1CCN2C(=O)N([C@H]3C[C@@H]3c3ccccc3)C(=O)C2C1 (mixture of isomers)	890
COc1ccccc1NC(=O)N1CCN2C(=O)N([C@H]3C[C@@H]3c3ccccc3)C(=O)C2C1 (mixture of isomers)	1700
CCCCN(CCCC)C(=O)N1CCN2C(=O)N([C@H]3C[C@@H]3c3ccccc3)C(=O)C2C1 (mixture of isomers)	920
O=C(NC1CCCCC1)N1CCN2C(=O)N([C@H]3C[C@@H]3c3ccccc3)C(=O)C2C1 (mixture of isomers)	250
O=C(Nc1ccccc1-c1ccccc1)N1CCN2C(=O)N(c3cccc4ccccc34)C(=O)C2C1 (racemic)	> 2500
O=C(Nc1ccncc1-c1ccccc1)N1CCN2C(=O)N([C@H]3C[C@@H]3c3ccccc3)C(=O)C2C1 (mixture of isomers)	88

System: not listed separately
Assay: Intrinsic clearance in rat liver microsomes assessed per mg of protein
Assay type: ADME, Microsome
Settings: not given

Structure (SMILES)	microsomal CLint [µL/min/mg]
O=C(Nc1cccc(Cl)c1Cl)N1CCN2C(=O)N([C@H]3C[C@@H]3c3ccccc3)C(=O)C2C1 (mixture of isomers)	180
O=C(Nc1ccccc1-c1ccccc1)N1CCN2C(=O)N([C@H]3C[C@@H]3c3ccccc3)C(=O)C2C1 (mixture of isomers)	> 300
